Series [1] concerns non-malignant CHO-K1 cell line. The series is described as follows: Sulforhodamine B (SRB) cytotoxicity assay, non-malignant cells. The format is cell-based. The following applies: Cricetulus griseus, mean ± SE. The protocol: (§1) To determine the cytotoxic effect of the synthesized hybrids, they were evaluated against SW480 human colon adenocarcinoma cells, its metastatic derivative SW620 and the non-malignant CHO-K1 cell line, through the sulforhodamine B assay. In this experiment, 5-FU was also included as the reference drug, as well as the parental subunits (curcumin and resveratrol) and the equimolar mixture of these. Cytotoxicity was reported as 50% inhibitory concentration (IC50 values).
(§2) Biological assays were performed using an adenocarcinoma colon cancer cell line (SW480), its metastatic derivative (SW620) and non-malignant cells (CHO-K1). These were obtained from The European Collection of Authenticated Cell Cultures (ECACC, England) and maintained in Dulbecco’s Modified Eagle Medium, supplemented with 10% heat-inactivated (56 °C) horse serum, 1% penicillin/streptomycin and 1% non-essential amino acids (Gibco Invitrogen, Carlsbad, USA). For all experiments, horse serum was reduced to 3%, and the medium was supplemented with […], 5 ng/mL selenium and […] (ITS-defined medium; Gibco, Invitrogen, Carlsbad, CA, USA).
(§3) Cytotoxicity of the synthesized hybrids, lead and reference compounds was evaluated through Sulforhodamine B (SRB) assay, a colorimetric test that is based on staining of total cellular protein of adherent cells. Cells were seeded to a final density of 20,000 cells/well in 96-well tissue culture plates and incubated at 37 °C in a humidified atmosphere at 5% CO2. All cultures were allowed to grow for 24 h, and afterward they were treated with DMSO (vehicle control 1%) or increasing concentrations (0.01–200 µM) of the synthesized hybrids, as well as curcumin and resveratrol (lead compounds), the equimolar mixture of these and 5-fluorouracil (5-FU; the standard drug). After treatment, cells were fixed with trichloroacetic acid (50% v/v) (MERCK) for a period of 1 h at 4 °C. Cell proteins were determined by staining with 0.4% (w/v) SRB (Sigma-Aldrich, United States), and then they were washed with 1% acetic acid for the removal of unbound SRB and left for air-drying. Protein bound SRB was solubilized in 10 mM Tris-base and the absorbance was measured at 492 nm in a microplate reader (Mindray MR-96A). All experiments were performed at least in triplicate.

The test system of series [2] is SW620 cells (metastatic derivative of SW480). The series is described as follows: Sulforhodamine B (SRB) cytotoxicity assay, SW620. The format is cell-based, human. The following applies: for SI (selectivity index): IC50 CHO-K1 / IC50 SW620; for IC50: Homo sapiens, SW-620, SRB, mean ± SE. On the procedure: as §1, §2, §3
For series [3], the system named is SW480 human colon adenocarcinoma cells. Nature of the series: Sulforhodamine B (SRB) cytotoxicity assay, SW480. The format is cell-based. The note with it: for SI (selectivity index): IC50 CHO-K1 / IC50 SW480; for IC50: Homo sapiens, SRB, mean ± SE. On the procedure:
as §1, §2, §3

These results are taken from PMC8124228, “New Hybrids Based on Curcumin and Resveratrol: Synthesis, Cytotoxicity and Antiproliferative Activity against Colorectal Cancer Cells” (Molecules, 2021).

Bounds are passed on as bounds.

Molecule `COc1ccc(OC)c(/C=C/c2ccc(C(=O)/C=C/c3ccc(O)c(OC)c3)cc2)c1` [Hybrid 3f, (E)-1-(4-((E)-2,5-Dimethoxystyryl)phenyl)-3-(4-hydroxy-3-methoxyphenyl)prop-2-en-1-one] had a melting point of 47 to 51 °C. Moreover, the 50% inhibitory concentration (IC50) in series [1] (24 h) turned out to be 112 ± 15.8 µM. In addition, it took 23.9 ± 4.01 µM to reach half-maximal inhibition in series [1] (48 h) (IC50). Further, in series [2] (24 h), the “SI (selectivity index)” value is 2.36 and inhibition was half-maximal at 47.4 ± 10.5 µM (IC50). In series [2] (48 h), the “SI (selectivity index)” value came out at 0.86 and inhibition was half-maximal at 27.6 ± 4.99 µM (IC50). Moreover, the “SI (selectivity index)” value in series [3] (24 h) came to 1.33. In addition, the “SI (selectivity index)” value in series [3] (48 h) is reported as 0.27. Also, in series [3] (SW480, 24 h, 24 h), the IC50 was 84.4 ± 5.45 µM. Besides, the half-maximal inhibitory concentration (IC50) in series [3] (SW480, 48 h, 48 h) stood at 88.6 ± 1.84 µM.
Consider `COc1cc(/C=C/C(=O)CC(=O)/C=C/c2ccc(O)c(OC)c2)ccc1O` [Curcumin], for which the “SI (selectivity index)” value was determined as 0.12 in series [2] (24 h), 1.63 in series [2] (48 h), 0.24 in series [3] (24 h) and 0.40 in series [3] (48 h).
`COc1cc(/C=C/C(=O)c2ccc(/C=C/c3c(OC)cccc3OC)cc2)ccc1O` [Hybrid 3g, (E)-1-(4-((E)-2,6-Dimethoxystyryl)phenyl)-3-(4-hydroxy-3-methoxyphenyl)prop-2-en-1-one]: the melting point is 87 to 90 °C. The molecule further gave an IC50 in series [1] (24 h) of 95 ± 1.67 µM. Moreover, in series [1] (48 h), the IC50 turned out to be 32.4 ± 5.16 µM. In series [2] (24 h), the “SI (selectivity index)” value amounted to 2.82 and inhibition was half-maximal at 33.7 ± 4.2 µM (IC50). In series [2] (48 h), the “SI (selectivity index)” value is reported as 1.17 and the IC50 turned out to be 27.6 ± 5.21 µM. For the same molecule, the “SI (selectivity index)” value in series [3] (24 h) was determined as 11.1. Besides, the “SI (selectivity index)” value in series [3] (48 h) is given as 0.83. In series [3] (SW480, 24 h, 24 h), it took 8.55 ± 2.47 µM to reach half-maximal inhibition (IC50). This molecule also yielded a 50% inhibitory concentration (IC50) in series [3] (SW480, 48 h, 48 h) of 39.1 ± 5.68 µM.
The molecule `COc1cc(/C=C/C(=O)c2ccc(/C=C/c3ccc(O)c(OC)c3)cc2)ccc1O` [Hybrid 3j, (E)-3-(4-Hydroxy-3-methoxyphenyl)-1-(4-((E)-4-hydroxy-3-methoxystyryl)phenyl)prop-2-en-1-one] registered a melting point of 142 to 146 °C. The same molecule showed an IC50 in series [1] (24 h) of 42.1 ± 4.85 µM. In series [1] (48 h), the half-inhibitory concentration (IC50) was 24.3 ± 5.21 µM. Moreover, in series [2] (24 h), the “SI (selectivity index)” value is 1.50 and half-maximal inhibition (IC50) required 28.1 ± 4.27 µM. Also, in series [2] (48 h), the “SI (selectivity index)” value is reported as 0.84 and half-maximal inhibition (IC50) required 28.8 ± 4.57 µM. Besides, the “SI (selectivity index)” value in series [3] (24 h) came to 5.28. Moreover, the “SI (selectivity index)” value in series [3] (48 h) was determined as 0.59. Moreover, the IC50 in series [3] (SW480, 24 h, 24 h) turned out to be 7.98 ± 1.53 µM. For the same molecule, the IC50 in series [3] (SW480, 48 h, 48 h) was 41.1 ± 7.8 µM.
`O=c1[nH]cc(F)c(=O)[nH]1` [Hybrid 5-FU, 5-fluorouracil, reference compound]: the “SI (selectivity index)” value was determined as 0.59 in series [2] (24 h), 0.96 in series [2] (48 h), 0.35 in series [3] (24 h) and 0.99 in series [3] (48 h).
Turning to `Oc1ccc(/C=C/c2cc(O)cc(O)c2)cc1` [Resveratrol], the IC50 was determined as 118 ± 8.54 µM in series [1] (24 h); 64 ± 8.92 µM in series [1] (48 h); 549 ± 38.5 µM in series [2] (24 h); 143 ± 4.03 µM in series [2] (48 h); 154 ± 10.6 µM in series [3] (SW480, 24 h, 24 h); 123 ± 4.48 µM in series [3] (SW480, 48 h, 48 h). The “SI (selectivity index)” value was 0.22 in series [2] (24 h), 0.45 in series [2] (48 h), 0.77 in series [3] (24 h) and 0.52 in series [3] (48 h).
Turning to `COc1cc(/C=C/C(=O)c2ccc(/C=C/c3cccc(OC)c3OC)cc2)ccc1O` [Hybrid 3d, (E)-1-(4-((E)-2,3-Dimethoxystyryl)phenyl)-3-(4-hydroxy-3-methoxyphenyl)prop-2-en-1-one], the melting point lay within 63 to 65 °C. For the same molecule, in series [1] (24 h), the IC50 came out at 31 ± 2.93 µM. The same molecule gave an IC50 in series [1] (48 h) of 12.4 ± 3.41 µM. Further, in series [2] (24 h), the “SI (selectivity index)” value was determined as 0.44 and the midpoint of inhibition, the IC50, lay at 70.5 ± 3.8 µM. For the same molecule, in series [2] (48 h), the “SI (selectivity index)” value is on record as 0.48 and the half-maximal inhibitory concentration (IC50) turned out to be 26.1 ± 4.24 µM. Also, the “SI (selectivity index)” value in series [3] (24 h) is recorded as 0.91. Also, the “SI (selectivity index)” value in series [3] (48 h) is on record as 0.49. This molecule registered an IC50 in series [3] (SW480, 24 h, 24 h) of 34.1 ± 3.92 µM. This molecule yielded an IC50 in series [3] (SW480, 48 h, 48 h) of 25.2 ± 3.54 µM.
Molecule `COc1cc(/C=C/c2ccc(C(=O)/C=C/c3ccc(O)c(OC)c3)cc2)cc(OC)c1` [Hybrid 3h, (E)-1-(4-((E)-3,5-Dimethoxystyryl)phenyl)-3-(4-hydroxy-3-methoxyphenyl)prop-2-en-1-one] registered a melting point of 49 to 51 °C. Moreover, the midpoint of inhibition in series [1] (24 h), the IC50, lay at 97.4 ± 2.62 µM. In series [1] (48 h), inhibition was half-maximal at 23.2 ± 4.07 µM (IC50). Further, in series [2] (24 h), the “SI (selectivity index)” value is recorded as 1.60 and the IC50 was determined as 61 ± 12.8 µM. In series [2] (48 h), the “SI (selectivity index)” value came out at 1.08 and the midpoint of inhibition, the IC50, lay at 21.4 ± 3.29 µM. In series [3] (24 h), the “SI (selectivity index)” value stood at 2.06. Besides, the “SI (selectivity index)” value in series [3] (48 h) is 0.93. For the same molecule, in series [3] (SW480, 24 h, 24 h), inhibition was half-maximal at 47.2 ± 8.39 µM (IC50). In addition, the IC50 in series [3] (SW480, 48 h, 48 h) stood at 24.9 ± 1.65 µM.
Consider `COc1cc(/C=C/C(=O)c2ccc(/C=C/c3ccc([N+](=O)[O-])cc3)cc2)ccc1O` [Hybrid 3c, (E)-3-(4-hydroxy-3-methoxyphenyl)-1-(4-((E)-4-nitrostyryl)phenyl)prop-2-en-1-one], for which the melting point is 227 to 230 °C. In series [1] (24 h), the 50% inhibitory concentration (IC50) was greater than 3000 µM. In series [1] (48 h), this molecule yielded an IC50 greater than 3000 µM. The IC50 in series [2] (24 h) was greater than 3000 µM. For the same molecule, in series [2] (48 h), the half-maximal inhibitory concentration (IC50) was greater than 3000 µM. In addition, the “SI (selectivity index)” value in series [3] (24 h) is listed as greater than 100. Also, the “SI (selectivity index)” value in series [3] (48 h) was greater than 15. This molecule showed a concentration for half-maximal inhibition (IC50) in series [3] (SW480, 24 h, 24 h) of 27.5 ± 2 µM. The molecule also returned a half-maximal inhibitory concentration (IC50) in series [3] (SW480, 48 h, 48 h) greater than 200 µM.
On to `COc1cc(/C=C/C(=O)c2ccc(/C=C/c3cc(OC)c(O)c(OC)c3)cc2)ccc1O` [Hybrid 3l, (E)-1-(4-((E)-4-Hydroxy-3,5-dimethoxystyryl)phenyl)-3-(4-hydroxy-3-methoxyphenyl)prop-2-en-1-one], for which the melting point lay in the range of 86 to 88 °C. In series [1] (24 h), this molecule came in with an IC50 of 90 ± 8.55 µM. For the same molecule, the IC50 in series [1] (48 h) stood at 24.8 ± 5.53 µM. Besides, in series [2] (24 h), the “SI (selectivity index)” value is recorded as 2.63 and half-maximal inhibition (IC50) was put at 34.2 ± 5.09 µM. In addition, in series [2] (48 h), the “SI (selectivity index)” value is listed as 0.83 and half-maximal inhibition (IC50) required 29.8 ± 3.68 µM. In addition, the “SI (selectivity index)” value in series [3] (24 h) was determined as 1.42. Besides, the “SI (selectivity index)” value in series [3] (48 h) was 0.48. Also, the IC50 in series [3] (SW480, 24 h, 24 h) was 63.5 ± 8.16 µM. This molecule gave an IC50 in series [3] (SW480, 48 h, 48 h) of 51.8 ± 5.85 µM.
Consider `COc1ccc(/C=C/c2ccc(C(=O)/C=C/c3ccc(O)c(OC)c3)cc2)cc1` [Hybrid 3b, (E)-3-(4-hydroxy-3-methoxyphenyl)-1-(4-((E)-4-methoxystyryl)phenyl)prop-2-en-1-one], for which the melting point was 187 to 190 °C.
